pIC50: −log10 of the molar value. Where a name gives a salt, the structure may show the parent alone.
Legend:
NOS = NOS (Rattus norvegicus, UniProt P29476); assay: Citrulline assay (Bredt and Snyder); format: biochemical
Method: This assay was carried out as described by D. S. Bredt and S. H. Snyder (Proc. Natl. Acad. Sci. USA (1990), 87, 682-685).

NO synthase = target: T1, NO synthase (Rattus norvegicus, UniProt P29476); assay: HTS-NOS assay (NOS assay): conversion of radioactive arginine, cation-exchanger filter plate; format: biochemical; settings: for inhibition at 10 µM: read-out: HTS-NOS assay: % inhibition (10 μM)
T1 construct: the supernatant was then removed by decantation and frozen in portions at −80° C; from tissue; host or cells: rat cerebellum, 20,000 g supernatant of homogenate
Procedure, shortened: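 Rat cerebellum supernatant as NOS source, incubated with radiolabelled arginine plus cofactors including NADPH at 25 °C for 5-60 min depending on enzyme activity. Unconverted arginine was trapped on a cation-exchange filter plate, citrulline washed out, and bound arginine counted by scintillation; % inhibition versus no-compound reactions.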

Row | Compound | pIC50 (NOS) | inhibition at 10 µM (NO synthase) [%] | further results
1 | Cc1ccn2c(NC3CCCCC3)c(-c3ccccc3C(F)(F)F)nc2c1 [Example 292, Cyclohexyl-[7-methyl-2-(2-trifluorO-methyl-phenyl)-imidazo[1,2-a]pyridin-3-yl]-amine; hydrochloride] | 5.62 |  | 
2 | Cc1cc(C)n2c(NC3CCCCC3)c(-c3ccncc3)nc2c1 [Example 295, Cyclohexyl-(5,7-dimethyl-2-pyridin-4-yl-imidazo[1,2-a]pyridin-3-yl)-amine; hydrochloride] | 5.04 |  | 
3 | Cc1cc(C)n2c(NC(C)(C)CC(C)(C)C)c(-c3ccco3)nc2c1 [Example 296, (2-Furan-2-yl-5,7-dimethyl-imidazo[1,2-a]-pyridin-3-yl)-(1,1,3,3-tetramethyl-butyl)-amine; hydrochloride] | 5.60 |  | 
4 | Cc1ccn2c(NC(C)(C)CC(C)(C)C)c(-c3ccccc3F)nc2c1 [Example 298, [2-(2-Fluorophenyl)-7-methyl-imidazo[1,2-a]pyridin-3-yl]-(1,1,3,3-tetramethyl-butyl)-amine; hydrochloride] | 5.37 |  | 
5 | CCc1ccn2c(Nc3ccc(F)c(Cl)c3)c(-c3ccc(C)o3)nc2c1 [Example 317, (3-Chloro-4-fluoro-phenyl)-[7-ethyl-2-(5-methyl-furan-2-yl)-imidazo[1,2-a]pyridin-3-yl]-amine] |  | 59 | 
6 | CCc1ccn2c(Nc3ccc(F)c(Cl)c3)c(-c3cc4ccccc4o3)nc2c1 [Example 318, (2-Benzofuran-2-yl-7-ethyl-imidazo[1,2-a]-pyridin-3-yl)-(3-chloro-4-fluoro-phenyl)-amine] |  | 52 | 
7 | CCc1ccn2c(Nc3cccc(Cl)c3)c(-c3cc4ccccc4o3)nc2c1 [Example 319, (2-Benzofuran-2-yl-7-ethyl-imidazo[1,2-a]-pyridin-3-yl)-(3-chloro-phenyl)-amine] |  | 53 | 
8 | CCc1ccn2c(Nc3ccc(F)c(Cl)c3)c(-c3ccc(-c4cccc(Cl)c4)o3)nc2c1 [Example 320, (3-Chloro-4-fluorophenyl)-{2-[5-(3-chloro-phenyl)-furan-2-yl]-7-ethyl-imidazo[1,2-a]-pyridin-3-yl}-amine] |  | 52 | 
9 | CCc1ccn2c(Nc3ccc(F)c(Cl)c3)c(-c3ccc(-c4ccccc4Cl)o3)nc2c1 [Example 321, (3-Chloro-4-fluorophenyl)-{2-[5-(2-chlorophenyl)-furan-2-yl]-7-ethyl-imidazo[1,2-a]pyridin-3-yl}-amine] |  | 50 | 
10 | CCc1ccn2c(Nc3ccc(F)c(Cl)c3)c(-c3cc(C)c(C)o3)nc2c1 [Example 322, (3-Chloro-4-fluorophenyl)-[2-(4,5-dimethyl-furan-2-yl)-7-ethyl-imidazo[1,2-a]pyridin-3-yl]-amine] |  | 49 | 
11 | [6-(acetyl-{7-methyl-2-[5-(2-nitro-phenyl)-furan-2-yl]-imidazo[1,2-a]pyridin-3-yl}-amino)-hexyl]-methylidyne-ammonium [Example 215] |  |  | HTS-NOS assay: % inhibition (10 μM) (NO synthase; 10 μM): 50%

From US20040023972A1, “Use of substituted imidazo[1,2-a]-pyridin-, -pyrimidin-and-pyrazin-3-yl-amine derivatives in the preparation of medicaments for inhibiting NOS” (Gruenenthal GmbH, priority 2000, published 2004)
